Values quoted from earlier work, collected in US6156769A (priority 2000, dated 2000).

Test system: pruritus
Details: i.v. morphine

## CN1CC[C@]23c4c5ccc(O)c4O[C@H]2[C@@H](O)C=C[C@H]3[C@H]1C5 [morphine]
  generalized itching: about 1 % of patients
